*1 amine or outer side, *2 acyl side, *3 side chain or, on linkers, in order; H or OH if unused. Where a SMILES comes first, the peptide text is derived from it. Bridges are numbered along the chain shown (N, C = ends). [ ]: non-standard residue; d: D form. The star is where a group is joined. hPhe(3,5-F2-4-CF3) = N[C@@H](CCc1cc(F)c(C(F)(F)F)c(F)c1)C(=O)O; hPhe(3-Cl-4-CF3) = N[C@@H](CCc1ccc(C(F)(F)F)c(Cl)c1)C(=O)O; X43 = COCCCN([C@@H](Cc1ccc(C(F)(F)F)cc1)C(=O)[*:2])[*:1]; NPrPhe(4-CF3) = CCCN[C@@H](Cc1ccc(C(F)(F)F)cc1)C(=O)O; NEtPhe(4-CF3) = CCN[C@@H](Cc1ccc(C(F)(F)F)cc1)C(=O)O; Abu(4,4,4-F3) = N[C@@H](CC(F)(F)F)C(=O)O; NMeGly(cPent) = CN[C@H](C(=O)O)C1CCCC1; Pro(4,4-F2) = O=C(O)[C@@H]1CC(F)(F)CN1; X3 = CCC[C@](C)(N[*:1])C(=O)[*:2]; NMeD = CN[C@@H](CC(=O)O)C(=O)O; NMeL = CN[C@@H](CC(C)C)C(=O)O; Ac6c = NC1(C(=O)O)CCCCC1; Morpholide = C1CN(*)CCO1; NMeA = CN[C@@H](C)C(=O)O; Ac5c = NC1(C(=O)O)CCCC1; Aze = O=C(O)[C@@H]1CCN1; Ac4c = NC1(C(=O)O)CCC1; Sar = CNCC(=O)O
Columns and labels:
[1] = system: human lung cancer strain NCI-H441; type: cell-based
Outline: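 Readout: […] after the ATP-based reagent. Compound: serial dilutions in dimethyl sulfoxide.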

HRAS wild-type protein = HRAS wild-type protein (Homo sapiens, UniProt P01112); assay: Binding to HRAS by surface plasmon resonance (SPR), KD and KD ratio to KRAS
Sequence of HRAS wild-type protein (P01112 whole entry): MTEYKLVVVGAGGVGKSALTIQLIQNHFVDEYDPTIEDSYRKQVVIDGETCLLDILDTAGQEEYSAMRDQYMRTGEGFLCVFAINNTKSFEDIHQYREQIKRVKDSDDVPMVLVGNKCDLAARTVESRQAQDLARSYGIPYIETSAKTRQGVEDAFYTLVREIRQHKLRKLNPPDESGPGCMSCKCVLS
Outline: (§1)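 GDP-loaded biotinylated Avi-tag RAS proteins (E. coli-expressed) captured on a Biotin CAPture chip at ~100–300 RU; single-cycle kinetics at 30°C, 100 µL/min, 75 s injections of rising compound concentrations. HBS pH 7.4 running buffer with 1 mM DTT, 10 mM MgCl2, 10 µM GDP, 4% DMSO. KD from 1:1 binding fit.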

[2] = target: GDP-bound NRAS wild-type protein (Homo sapiens, UniProt P01111); assay: Binding to NRAS by surface plasmon resonance (SPR), KD and KD ratio to KRAS
Sequence of GDP-bound NRAS wild-type protein (P01111 whole entry): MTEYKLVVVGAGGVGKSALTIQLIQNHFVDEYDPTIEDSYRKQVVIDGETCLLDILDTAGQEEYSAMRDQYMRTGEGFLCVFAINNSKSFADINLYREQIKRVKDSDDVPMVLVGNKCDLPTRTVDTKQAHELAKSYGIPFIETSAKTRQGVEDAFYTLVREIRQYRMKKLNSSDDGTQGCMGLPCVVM
Outline: as §1

[3] = ratio of KD for HRAS wild-type protein to KD for KRAS
[4] = ratio of KD for GDP-bound NRAS wild-type protein to KD for KRAS
[5] = ratio of the KD value with respect to HRAS wild-type protein to the KD value with respect to KRAS
[6] = ratio of the KD value with respect to GDP-bound NRAS wild-type protein to the KD value with respect to KRAS

Row | Structure (SMILES) | IC50 [1] [nM] | HRAS /KRAS (HRAS wild-type protein; [3]) | NRAS /KRAS [2, 4] | HRAS /KRAS (HRAS wild-type protein; [5]) | NRAS /KRAS [2, 6] | HRAS /KRAS (HRAS wild-type protein; ratio of KD value for HRAS wild-type protein to KD value for KRAS (SPR)) | NRAS /KRAS ([2]; ratio of KD value for GDP-bound NRAS wild-type protein to KD value for KRAS (SPR))
1 | CCCN1C(=O)CN(C)C(=O)CN(C)C(=O)[C@H](CC(F)(F)F)NC(=O)[C@H](CC(C)C)N(C)C(=O)C[C@@H](C(=O)N2CCOCC2)N(C)C(=O)[C@H](C2CCCC2)N(C)C(=O)C2(CCCC2)NC(=O)[C@@H]2CCCN2C(=O)[C@H](CCc2ccc(C(F)(F)F)c(Cl)c2)NC(=O)CN(C)C(=O)[C@@H]1Cc1ccc(C(F)(F)F)cc1 [PP0249] ([NMeL][Abu(4,4,4-F3)][Sar][Sar][NPrPhe(4-CF3)][Sar][hPhe(3-Cl-4-CF3)]P[Ac5c][NMeGly(cPent)][NMeD]-Morpholide; lactam N-11) | 25.5 | C (A compound having a KD ratio of 0.1 or more and less than 3 is denoted as C) | B (a compound having 3 or more and less than 10 is denoted as B) | – | – | – | –
2 | CCO[C@@H]1C[C@H]2C(=O)NC3(CC(C)(C)C3)C(=O)N(C)[C@@H](C(CC)CC)C(=O)N(C)[C@H](C(=O)N(C)C)CC(=O)N(C)[C@@H](CC3CCC3)C(=O)N[C@@H]([C@@H](C)CC)C(=O)N(C)CC(=O)N(C)[C@H]3C/C=C\CCN(C3=O)[C@@H](Cc3ccc(C)cc3)C(=O)N(C)CC(=O)N[C@@H](CCc3ccc(C(F)(F)F)c(Cl)c3)C(=O)N2C1 [PP2156] | 20.6 | – | – | A (a compound having 10 or more and less than 20 is denoted as A) | AA (a compound having 20 or more is denoted as AA) | – | –
3 | CC[C@H](C)[C@@H]1NC(=O)[C@H](CC(C)C)N(C)C(=O)C[C@@H](C(=O)N2CCOCC2)N(C)C(=O)[C@H](C2CCCC2)N(C)C(=O)C2(CCCCC2)NC(=O)[C@@H]2CCCN2C(=O)[C@H](CCc2ccc(C(F)(F)F)c(Cl)c2)NC(=O)CN(C)C(=O)[C@H](Cc2ccc(C(F)(F)F)cc2)N(CC)C(=O)CN(C)C(=O)CN(C)C1=O [PP0236] ([NMeL]I[Sar][Sar][NEtPhe(4-CF3)][Sar][hPhe(3-Cl-4-CF3)]P[Ac6c][NMeGly(cPent)][NMeD]-Morpholide; lactam N-11) | 20.3 | C (A compound having a KD ratio of 0.1 or more and less than 3 is denoted as C) | B (a compound having 3 or more and less than 10 is denoted as B) | – | – | – | –
4 | CCCN(C)C(=O)[C@@H]1CC(=O)N(C)[C@@H](C2CC2)C(=O)N[C@@H]([C@@H](C)CC)C(=O)N(C)CC(=O)N(C)[C@H]2C/C=C\CCN(C2=O)[C@@H](Cc2ccc(C(F)(F)F)cc2)C(=O)N(C)CC(=O)N[C@@H](CCc2ccc(C(F)(F)F)c(OC)c2)C(=O)N2C[C@H](OCC)C[C@H]2C(=O)NC2(CC(C)(C)C2)C(=O)N(C)[C@@H](C2CCCC2)C(=O)N1C [PP1983] | 20.2 | – | – | A (a compound having 10 or more and less than 20 is denoted as A) | AA (a compound having 20 or more is denoted as AA) | – | –
5 | CCO[C@@H]1C[C@H]2C(=O)NC3(CCC3)C(=O)N(C)[C@@H](C3CCCC3)C(=O)N(C)[C@H](C(=O)N3CCOCC3)CC(=O)N(C)[C@@H](CC)C(=O)N[C@@H]([C@@H](C)CC)C(=O)N(C)CC(=O)N(C)[C@H]3CC(C)=CCN(C3=O)[C@@H](Cc3ccc(C(F)(F)F)cc3)C(=O)N(C)CC(=O)N[C@@H](CCc3cc(F)c(C(F)(F)F)c(F)c3)C(=O)N2C1 [PP1041] | 223 | C (A compound having a KD ratio of 0.1 or more and less than 3 is denoted as C) | C (A compound having a KD ratio of 0.1 or more and less than 3 is denoted as C) | – | – | – | –
6 | CC[C@H](C)[C@@H]1NC(=O)[C@H](CC(C)C)N(C)C(=O)C[C@@H](C(=O)N2CCOCC2)N(C)C(=O)[C@H](C2CCCC2)N(C)C(=O)C2(CCCC2)NC(=O)[C@@H]2CCCN2C(=O)[C@H](CCc2ccc(C(F)(F)F)c(Cl)c2)NC(=O)CN(C)C(=O)[C@H](Cc2ccc(C(F)(F)F)cc2)N(CCCOC)C(=O)[C@@H]2CCN2C(=O)[C@H](C)N(C)C1=O [PP0119] ([NMeL]I[NMeA][Aze][X43][Sar][hPhe(3-Cl-4-CF3)]P[Ac5c][NMeGly(cPent)][NMeD]-Morpholide; lactam N-11) | 1.6 | C (A compound having a KD ratio of 0.1 or more and less than 3 is denoted as C) | C (A compound having a KD ratio of 0.1 or more and less than 3 is denoted as C) | – | – | – | –
7 | CCCN1C(=O)[C@@H]2CCN2C(=O)[C@H](C)N(C)C(=O)[C@H]([C@@H](C)CC)NC(=O)[C@H](CC(C)C)N(C)C(=O)C[C@@H](C(=O)N2CCOCC2)N(C)C(=O)[C@H](C2CCCC2)N(C)C(=O)C2(CCC2)NC(=O)[C@@H]2CC(F)(F)CN2C(=O)[C@H](CCc2ccc(C(F)(F)F)c(Cl)c2)NC(=O)CN(C)C(=O)[C@@H]1Cc1ccc(C(F)(F)F)cc1 [PP0208] ([NMeL]I[NMeA][Aze][NPrPhe(4-CF3)][Sar][hPhe(3-Cl-4-CF3)][Pro(4,4-F2)][Ac4c][NMeGly(cPent)][NMeD]-Morpholide; lactam N-11) | 4.6 | C (A compound having a KD ratio of 0.1 or more and less than 3 is denoted as C) | C (A compound having a KD ratio of 0.1 or more and less than 3 is denoted as C) | – | – | – | –
8 | C#CCN1CC(=O)N(C)[C@H]2C/C=C\CCN(C2=O)[C@@H](Cc2ccc(C(F)(F)F)cc2)C(=O)N(C)CC(=O)N[C@@H](CCc2cc(F)c(C(F)(F)F)c(F)c2)C(=O)N2C[C@H](OCC)C[C@H]2C(=O)NC2(CC(C)(C)C2)C(=O)N(C)[C@@H](C2CCCC2)C(=O)N(C)[C@H](C(=O)N(C)C)CC(=O)N(C)[C@@H](CCC)C(=O)N[C@@H]([C@@H](C)CC)C1=O [PP2103] | 4.3 | – | – | A (a compound having 10 or more and less than 20 is denoted as A) | A (a compound having 10 or more and less than 20 is denoted as A) | – | –
9 | CCO[C@@H]1C[C@H]2C(=O)NC3(CC(C)(C)C3)C(=O)N(C)[C@@H](C3CCCC3)C(=O)N(C)[C@H](C(=O)N3CCCC3)CC(=O)N(C)[C@@H](CC)C(=O)N[C@@H]([C@@H](C)CC)C(=O)N(C)CC(=O)N(C)[C@H]3C/C=C\CCN(C3=O)[C@@H](Cc3ccc(C(F)(F)F)cc3)C(=O)N(C)CC(=O)N[C@@H](CCc3cc(F)c(C(F)(F)F)c(F)c3)C(=O)N2C1 [PP1944] | 14.8 | – | – | A (a compound having 10 or more and less than 20 is denoted as A) | A (a compound having 10 or more and less than 20 is denoted as A) | – | –
10 | CCCN1C(=O)CN(C)C(=O)CN(C)C(=O)[C@H]([C@@H](C)CC)NC(=O)[C@H](CC(C)C)N(C)C(=O)C[C@@H](C(=O)N(C)C)N(C)C(=O)[C@H](C2CCCC2)N(C)C(=O)[C@](C)(CCC)NC(=O)[C@@H]2CCCN2C(=O)[C@H](CCc2cc(F)c(C(F)(F)F)c(F)c2)NC(=O)CN(C)C(=O)[C@@H]1Cc1ccc(C(F)(F)F)cc1 [PP0737] ([NMeL]I[Sar][Sar][NPrPhe(4-CF3)][Sar][hPhe(3,5-F2-4-CF3)]P[X3][NMeGly(cPent)][NMeD]-NMe2; lactam N-11) | 38.2 | – | – | C (A compound having a KD ratio of 0.1 or more and less than 3 is denoted as C) | B (a compound having 3 or more and less than 10 is denoted as B) | – | –
11 | CCO[C@@H]1C[C@H]2C(=O)NC3(CC(C)(C)C3)C(=O)N(C)[C@@H](C3CCCC3)C(=O)N(C)[C@H](C(=O)N(C)C)CC(=O)N(C)[C@@H](CC)C(=O)N[C@@H]([C@@H](C)CC)C(=O)N(C)CC(=O)N(C)[C@H]3C/C=C\CCN(C3=O)[C@@H](Cc3ccc(C(F)(F)F)cc3)C(=O)N(C)CC(=O)N[C@@H](CCc3ccc(C(F)(F)F)c(OC)c3)C(=O)N2C1 [PP1559] | 1.8 | – | – | – | – | A (a compound having 10 or more and less than 20 is denoted as A) | A (a compound having 10 or more and less than 20 is denoted as A)
12 | CCO[C@@H]1C[C@H]2C(=O)NC3(CC(C)(C)C3)C(=O)N(C)[C@@H](C3CCCC3)C(=O)N(C)[C@H](C(=O)N(C)CC)CC(=O)N(C)[C@@H](CC(C)C)C(=O)N[C@@H]([C@@H](C)CC)C(=O)N(C)CC(=O)N(C)[C@H]3C/C=C\CCN(C3=O)[C@@H](Cc3ccc(C(F)F)cc3)C(=O)N(C)CC(=O)N[C@@H](CCc3cc(F)c(C(F)(F)F)c(F)c3)C(=O)N2C1 [PP2046] | 2.2 | – | – | A (a compound having 10 or more and less than 20 is denoted as A) | A (a compound having 10 or more and less than 20 is denoted as A) | – | –
13 | CCCN1C(=O)CN(C)C(=O)[C@@H]2CCN2C(=O)[C@H]([C@@H](C)CC)NC(=O)[C@H](CC(C)C)N(C)C(=O)C[C@@H](C(=O)N(C)C)NC(=O)[C@H](C2CCCC2)N(C)C(=O)C2(CCCC2)NC(=O)[C@@H]2CCCN2C(=O)[C@H](CCc2ccc(C(F)(F)F)c(Cl)c2)NC(=O)CN(C)C(=O)[C@@H]1Cc1ccc(C(F)(F)F)cc1 [PP0373] ([NMeL]I[Aze][Sar][NPrPhe(4-CF3)][Sar][hPhe(3-Cl-4-CF3)]P[Ac5c][NMeGly(cPent)]D-NMe2; lactam N-11) | 152 | B (a compound having 3 or more and less than 10 is denoted as B) | B (a compound having 3 or more and less than 10 is denoted as B) | – | – | – | –

— patent publication EP4603105A1, “PHARMACEUTICAL COMPOSITION CONTAINING CYCLIC COMPOUND HAVING SELECTIVE KRAS INHIBITORY EFFECT AGAINST HRAS AND NRAS” (CHUGAI SEIYAKU KABUSHIKI KAISHA, priority 2022, dated 2024)
